Source: patent publication US20190282701A1, “CONJUGATES OF HYALURONIC ACID AND ANTICANCER COMPOUNDS” (THE UNIVERSITY OF MANCHESTER, priority 2016, published 2019)

Tests used:
[1] = literature; cited from earlier work
LNCaP tumor = assay: tumor growth in LNCaP tumor-bearing athymic nude mice; format: in vivo; details: i.v. every 3 day, 21 days
Protocol: Tumor-bearing mice were prepared by injecting a suspension of LNCaP cells 1×10^6 in saline physiological solution (100 μL) into the subcutaneous dorsa of athymic nude mice (seven weeks old, 20-25 g). After fourteen days of appropriate tumor growth, LNCaP bearing mice were divided into eight groups (n=10 for each group). Treatment was initiated when the tumor volume reached 90 mm^3. The mice were then i.v. injected with 200 μL of the following solutions: […] DMSO to obtain doses of 3, 6, 25 mg/Kg, HAB to obtain a dose of 50 mg/Kg, and DMSO 11% wt. in PBS. Intravenous injections, administered in tail vein, were performed every 3 day for a total period of 21 days of treatment and then sacrificed according to ethical laws in force, following a literature method^1. The tumor size was determined by caliper measurement of the largest and perpendicular diameters during the time of treatment. Tumor volumes were calculated according to the formula: V=a×b^2×0.52, where a is the largest superficial diameter and b is the smallest superficial diameter, according to a literature procedure^17.

[2] = system: NCI-H209 lung cancer cells; details: 24 h; cited from earlier work
MCF7 breast cancer cells = details: 72 h; cited from earlier work
16-F10 melanoma cells = details: 72 h; cited from earlier work
[3] = system: HK1 squamous nasopharynx carcinoma cells; details: 72 h; cited from earlier work
[4] = system: C66-1 squamous nasopharynx carcinoma cells; details: 72 h; cited from earlier work
A549 = assay: hypoxic/normoxic cytotoxicity, A549; format: cell-based; details: Homo sapiens, survival at 72 h, n=3, conjugate as TPZ groups
Calu-3 = assay: hypoxic/normoxic cytotoxicity, Calu-3; format: cell-based; details: Homo sapiens, survival at 72 h, n=3, conjugate as TPZ groups
Calu-6 = assay: hypoxic/normoxic cytotoxicity, Calu-6; format: cell-based; details: Homo sapiens, survival at 72 h, n=3, conjugate as TPZ groups
HepG2 = assay: hypoxic/normoxic cytotoxicity, HepG2; format: cell-based; details: Homo sapiens, survival at 72 h, n=3, conjugate as TPZ groups
Hep3B2 = assay: hypoxic/normoxic cytotoxicity, Hep3B2; format: cell-based; details: Homo sapiens, Hep3B, survival at 72 h, n=3, conjugate as TPZ groups
SNU-423 = assay: hypoxic/normoxic cytotoxicity, SNU-423; format: cell-based; details: Homo sapiens, survival at 72 h, n=3, conjugate as TPZ groups
SKBr3 = assay: hypoxic/normoxic cytotoxicity, SKBr3; format: cell-based; details: Homo sapiens, survival at 72 h, n=3, conjugate as TPZ groups
MDA-MB-468 = assay: hypoxic/normoxic cytotoxicity, MDA-MB-468; format: cell-based; details: Homo sapiens, survival at 72 h, n=3, conjugate as TPZ groups
T47D = assay: hypoxic/normoxic cytotoxicity, T47D; format: cell-based; details: Homo sapiens, survival at 72 h, n=3, conjugate as TPZ groups
MCF-7 = assay: hypoxic/normoxic cytotoxicity, MCF-7; format: cell-based; details: Homo sapiens, survival at 72 h, n=3, conjugate as TPZ groups
MDA-MB-231 = assay: hypoxic/normoxic cytotoxicity, MDA-MB-231; format: cell-based; details: Homo sapiens, survival at 72 h, n=3, conjugate as TPZ groups
FaDu = assay: hypoxic/normoxic cytotoxicity, FaDu; format: cell-based; details: Homo sapiens, survival at 72 h, n=3, conjugate as TPZ groups
MIA PACA-2 = assay: hypoxic/normoxic cytotoxicity, MIA PACA-2; format: cell-based; details: Homo sapiens, survival at 72 h, n=3, conjugate as TPZ groups
CAL-27 = assay: hypoxic/normoxic cytotoxicity, CAL-27; format: cell-based; details: Homo sapiens, survival at 72 h, n=3, conjugate as TPZ groups
human tumoral cell lines [5] = assay: tumour cell viability assays on a panel of human cancer cell lines (overall statements, FIG. 8-10); details: eight cancer cell lines, 3 h exposure, FIG. 9 and 10
[6] = system: MDA-MB-231 breast cancer cells; assay: MTT toxicity of curcumin and curcumin-HAB conjugate; format: cell-based
Protocol: MDA-MB-231 breast cancer cells were cultured in RPMI-1640 (Gibco) containing 10% FBS, 1% Pen-Strep, L-Glutamine 2 mM (medium) at 37° C. in a humidified 5% CO2 atmosphere. To determine the toxicity of curcumin and a curcumin-HAB conjugate, cells were seeded in 96-well plates at a density of 1,000 cells per well in medium and left to attach for 24 hours. Medium was then removed and replaced with medium containing various concentrations of curcumin or the curcumin-HA conjugate. […] After this time, drug containing medium was removed, replaced with fresh medium and cells incubated for a further 96 hours. […] Briefly, 50 μl of MTT solution (0.5 mg/ml in cell culture medium) was added to each well. After incubation for a further 4 h at 37° C. the medium was removed from each well and replaced with 200 μl of DMSO to dissolve the formazan crystals. The Absorbance in each well was then read at a wavelength of 450 nm using a Tecan Infinite M200 plate-reader using I-control software. The relative cell viability (%) was calculated by the formula [A]test/[A]control×100, where “[A]test” is the absorbance of the test sample, and “[A]control” is the absorbance of the control cells incubated solely with culture medium.

human tumoral cell lines [7] = system: human tumoral cell lines
[8] = A549, A549, 0.1% O2, 3 h exposure
[9] = Calu-3, Calu-3, 0.1% O2, 3 h exposure
[10] = Calu-3, Calu-3, Air, 3 h exposure
[11] = Calu-6, Calu-6, 0.1% O2, 3 h exposure
[12] = Calu-6, Calu-6, Air, 3 h exposure
[13] = HepG2, HepG2, 0.1% O2, 3 h exposure
[14] = HepG2, HepG2, Air, 3 h exposure
[15] = SNU-423, SNU-423, 0.1% O2, 3 h exposure
[16] = SNU-423, SNU-423, Air, 3 h exposure
[17] = SK-BR-3, SKBr3, 0.1% O2, 3 h exposure
[18] = SK-BR-3, SKBr3, Air, 3 h exposure
[19] = MDA-MB-468, MDA-MB-468, 0.1% O2, 3 h exposure
[20] = MDA-MB-468, MDA-MB-468, Air, 3 h exposure
[21] = MCF7, MCF-7, 0.1% O2, 3 h exposure
[22] = MDA-MB-231, MDA-MB-231, 0.1% O2, 3 h exposure
[23] = MDA-MB-231, MDA-MB-231, Air, 3 h exposure
[24] = MIA PaCa-2, MIA PACA-2, 0.1% O2, 3 h exposure
[25] = MIA PaCa-2, MIA PACA-2, Air, 3 h exposure
[26] = CAL-27, CAL-27, 0.1% O2, 3 h exposure
[27] = CAL-27, CAL-27, Air, 3 h exposure

Row | SMILES | tissue accumulation of free drug [1] | IC50 (A549; [8]) | IC50 (A549; A549, A549, Air, 3 h exposure) | IC50 (Calu-3; [9]) | IC50 (Calu-3; [10]) | IC50 (Calu-6; [11]) | IC50 (Calu-6; [12]) | IC50 (HepG2; [13]) | IC50 (HepG2; [14]) | IC50 (Hep3B2; Hep3B2, 0.1% O2, 3 h exposure) | IC50 (Hep3B2; Hep3B2, Air, 3 h exposure) | IC50 (SNU-423; [15]) | IC50 (SNU-423; [16]) | IC50 (SKBr3; [17]) | IC50 (SKBr3; [18]) | IC50 (MDA-MB-468; [19]) | IC50 (MDA-MB-468; [20]) | IC50 (T47D; 0.1% O2, 3 h exposure) | IC50 (T47D; Air, 3 h exposure) | IC50 (MCF-7; [21]) | also measured
1 | Oc1cc(O)cc(/C=C/c2ccc(O)c(O)c2)c1 [piceatannol] | strong renal and pulmonary accumulation | – | – | – | – | – | – | – | – | – | – | – | – | – | – | – | – | – | – | – | –
2 | O=c1c(O)c(-c2ccc(O)c(O)c2)oc2cc(O)cc(O)c12 [quercetin] | strong renal and pulmonary accumulation | – | – | – | – | – | – | – | – | – | – | – | – | – | – | – | – | – | – | – | dose of free quercetin giving results comparable to HABQ (LNCaP tumor): 25 mg/kg; IC50 [2]: 5 µM; IC50 (MCF7 breast cancer cells): 10 µM; IC50 (16-F10 melanoma cells): 20 µM; IC50 [3]: 150 to 200 µM; IC50 [4]: 150 to 200 µM
3 | O=C(NCCc1ccc(O)c(O)c1)Nc1n[n+]([O-])c2ccccc2[n+]1[O-] [TPZ-DOPA] | – | 42.3 ± 1.2 µM | 83.6 ± 3.7 µM | 16.7 ± 0.9 µM | 20.6 ± 1.1 µM | 8.3 ± 0.9 µM | 26.7 ± 4.8 µM | 3.7 ± 0.7 µM | 13.8 ± 2.8 µM | 4.8 ± 0.8 µM | 21.8 ± 2.7 µM | 6 ± 1 µM | 22.5 ± 6.4 µM | 13 ± 1.3 µM | 17.7 ± 1.5 µM | 8.2 ± 2.6 µM | 17.5 ± 5 µM | 18 ± 3.7 µM | 35.5 ± 6.4 µM | 15.4 ± 7.09 µM | IC50 (MCF-7; MCF7, MCF-7, Air, 3 h exposure): 23.1 ± 5.5 µM; IC50 (MDA-MB-231; [22]): 9 ± 1.4 µM; IC50 (MDA-MB-231; [23]): 23.1 ± 5.3 µM; IC50 (FaDu; 0.1% O2, 3 h exposure): 6.5 ± 0.9 µM; IC50 (FaDu; Air, 3 h exposure): 18 ± 2 µM; IC50 (MIA PACA-2; [24]): 9.6 ± 3.4 µM; IC50 (MIA PACA-2; [25]): 28 ± 3.7 µM; IC50 (CAL-27; [26]): 7.5 ± 4.4 µM; IC50 (CAL-27; [27]): 18.7 ± 3.1 µM; 72 h viability under hypoxia (0.1% oxygen) vs normoxia (air) (human tumoral cell lines [5]): viability is lower under hypoxia than that under normoxia
4 | COc1cc(/C=C/C(=O)CC(=O)/C=C/c2ccc(O)c(OC)c2)ccc1O [curcumin] | – | – | – | – | – | – | – | – | – | – | – | – | – | – | – | – | – | – | – | – | maximum cell kill that could be achieved ([6]; MDA-MB-231, 40 μM curcumin, 3 h exposure then 96 h): 40%; concentration of curcumin needed for 40% cell kill ([6]; MDA-MB-231, 3 h exposure then 96 h, conjugate as curcumin contained): 40 µM
5 | Nc1n[n+]([O-])c2ccccc2[n+]1[O-] [TPZ, tirapazamine] | – | 81.3 ± 7.2 µM | 585 ± 26.3 µM | 71.7 ± 4.4 µM | 242 ± 6 µM | 75 ± 8.6 µM | 340 ± 11.5 µM | 13 ± 4.7 µM | 228 ± 40.1 µM | 31.2 ± 2.3 µM | > 500 µM | 40 ± 5.8 µM | > 500 µM | 6.3 ± 1.3 µM | 218 ± 3.5 µM | 7.5 ± 4.1 µM | 232 ± 35 µM | 17.1 ± 1 µM | 271 ± 36.4 µM | 20 ± 2 µM | IC50 (MCF-7; MCF7, MCF-7, Air, 3 h exposure): 310 ± 18.3 µM; IC50 (MDA-MB-231; [22]): 30 ± 5 µM; IC50 (MDA-MB-231; [23]): 341 ± 37.5 µM; IC50 (FaDu; 0.1% O2, 3 h exposure): 23.3 ± 5.4 µM; IC50 (FaDu; Air, 3 h exposure): 383 ± 104 µM; IC50 (MIA PACA-2; [24]): 15.3 ± 2.5 µM; IC50 (MIA PACA-2; [25]): 270 ± 10 µM; IC50 (CAL-27; [26]): 10 ± 2 µM; IC50 (CAL-27; [27]): 318 ± 50.2 µM; difference between hypoxic and normoxic cytotoxicity (human tumoral cell lines [7]): larger difference between hypoxic and normoxic cytotoxicity
